Reference: patent US11260036B2, “[18F]-labelled lactate derivative as PET radiotracer” (GRANDIS, priority 2016, dated 2022)

Key:
[1] = target: T1, rabbit muscle LDH (Oryctolagus cuniculus, UniProt P13491); assay: Lactate dehydrogenase assay (reduction of 3-fluoropyruvate); assay type: biochemical; settings: 10 IU rabbit muscle LDH, NADH 0.2 mM, 37° C., 24 h, HPLC-MS detection
T1 construct: 10 IU of rabbit muscle LDH (Sigma); purchased Sigma; host or cells: rabbit muscle
Experimental: A potential reduction of 3-fluoropyruvate to 3-fluoro-2-hydroxypropionate by lactate dehydrogenase (LDH) was measured in vitro using a previously reported protocol (Goncalves et al., Tetrahedron: Asymmetry, 1996, 7, 1237-1240).
Briefly, 14.6 mg of nonradioactive 3-fluorpyruvate were dissolved in 4 mL of double distilled water containing 10 IU of rabbit muscle LDH (Sigma) and 5.3 IU of formate dehydrogenase (Sigma). The reaction was started by adding NADH to a final concentration of 0.2 mM and sodium formate to a final concentration of 40 mM. The final volume was adjusted to 5 mL with double distilled water. The reaction was carried out at 37° C. for 24 h under constant, gentle shaking at 120 rpm. Then, solution was spun through a 10 kDa filter to remove enzymes, and 3-fluoro-2-hydroxypropionate was detected by HPLC-MS using an Accela U(HPLC) equipped with a Luna Phenomenex 250*4.60 HPLC column and an ThermoScientific LTQ—ORBITRAP—XL fitted an electrospray ionization source working in negative mode.

[2] = test system: SQD9 cells; assay: In vitro tracer uptake assay, SQD9; assay type: cell-based, human; settings: SQD9, 6 min after delivery of 45 μCi/ml of the tracer
Description: (§1) Cells and gene silencing. HeLa and SiHa human cervix squamous cell carcinoma and SDQ9 human laryngeal squamous cell carcinoma were from ATCC. Cells were routinely cultured in DMEM (Thermo Fischer) containing glucose (4.5 g/L), Glutamax and 10% FBS. MCT1-deficient and control SiHa cells were produced as previously described (De Saedeleer et al., Oncogene, 2014, 33, 4060-4068), using the following vectors from Open Biosystems: TRCN0000038340 (shMCT1-1) and TRCN0000038339 (shMCT1-2). Control shRNA (shCTR) was Addgene plasmid 1864.
(§2) In vitro tracer uptake assay. A modified version of the ^14C-Lactate uptake assay described by Draoui et al., (Draoui et al., Bioorg Med Chem, 2013, 21, 7107-7117) was used. Briefly, 250,000 cells were plated in flat-bottom 24 well plates (t=0). When cells were attached (t=6 h), medium was replaced by DMEM without glucose and glutamine, containing 10% dialyzed FBS and 10 mM of L-lactate, pH 7.0. Cells were then incubated overnight at 37° C., 5% CO2. On the day of experiment, (t=24 h), cells medium was removed and cells were briefly washed twice with a modified KREBS solution without glucose (HEPES 25 mM, NaCl 120 mM, KCl 4.8 mM, KH2PO4 1.2 mM, MgSO4 1.2 mM, CaCl2 2 mM). […] Cells were lysed with NaOH 0.1 N, and ^18F activity was measured in the cell lysate using a Wiper Gold γ-counter (Laboratory Technologies). Activity is expressed as % of initial dose. […]

[3] = test system: SiHa cells; assay: In vitro tracer uptake assay, SiHa; assay type: cell-based, human; settings: 6 min after delivery of 45 μCi/ml of the tracer
Description: as §1, §2

[4] = test system: SiHa tumors; assay: In vivo tracer uptake assay (PET/CT), mice bearing SiHa-shCTR and SiHa-shMCT1 tumors
Experimental: In vivo tracer uptake assay. All in vivo experiments were performed with approval of UCL Comité d'Ethique pour l'Expérimentation Animale (approval ID 2014/UCL/MD/014) according to national and European animal care regulations. To avoid inter-subject variability, 500,000 SiHa-shCTR and SiHa-shMCT1 cells in a HBSS:Matrigel 1:1 solution were respectively injected in the left and right flank of same 6.5 week-old male NMRI nude mice. In another model, 1,000,000 SQD9 cells in a HBSS:Matrigel 1:1 solution were injected on the back of same 6.5 week-old male NMRI nude mice. Experiments were performed on tumors of ˜10 mm in diameter, i.e., about 3 weeks tumor cell inoculation. For intravenous injection, MCT1 inhibitor AR-C155858 (Tocris) was dissolved in 0.9% NaCl with 10% (2-hydroxypropyl)-β-cyclodextrin at a concentration of 2.5 mg/ml (Vijay et al., Pharm Res, 2015, 32, 1894-1906). For intravenous injection, MCT1 inhibitor AZD3965 (Selleckchem) was first dissolved in pure ethanol at a concentration of 100 mg/ml, then diluted in 0.9% NaCl with 10% (2-hydroxypropyl)-β-cyclodextrin at a final concentration of 2.5 mg/ml. (±)-[^18F]-3-fluoro-2-hydroxypropionate (150-250 μCO was injected in the tail vein of the animals 10 min after the delivery of AR-C155858 (5 mg/Kg), AZD3965 (5 mg/Kg), or vehicle (70 μL). At indicated times, a whole body 10-min static PET imaging (small-animal Mosaic PET Scan system, Philips Medical Systems) directly followed by a 10 min transmission CT scan (NanoSPECT/CT Small Animal Imager, Bioscan; source: 370 MBq ^137Cs; X-Ray tube voltage: 55 kVp; number of projections: 180; exposure time 1000 ms) were performed on isoflurane-anesthetized mice kept at 35° C. PET images were corrected for attenuation and reconstructed using fully 3D iterative algorithm 3D-RAMLA in a 128×128×120 matrix, with a voxel size of 1 mm^3. CT images were reconstructed with a voxel size of 0.221×0.221×0.221 mm^3. 2D Regions of interest (ROIs) were manually delineated on PET images using the PMOD software version 3.5 (PMOD technologies Ltd). Tumor localization was determined on PET/CT fused images. Ribcage and skin were used as internal and external limits, respectively. Tracer uptake is expressed as standard uptake value (SUV) calculated on the mean value of voxels within the manually defined 3D volume of interest (VOI).

[5] = test system: HeLa cells; assay: In vitro tracer uptake assay, HeLa; assay type: cell-based, human; settings: 6 min after delivery of 45 μCi/ml of the tracer
Description: as §1, §2

[6] = test system: SQD9 tumors; assay: In vivo tracer uptake assay (PET/CT), mice bearing SQD9 tumors; settings: IV 250 μCi, PET-CT
Experimental: In vivo tracer uptake assay. All in vivo experiments were performed with approval of UCL Comité d'Ethique pour l'Expérimentation Animale (approval ID 2014/UCL/MD/014) according to national and European animal care regulations. To avoid inter-subject variability, 500,000 SiHa-shCTR and SiHa-shMCT1 cells in a HBSS:Matrigel 1:1 solution were respectively injected in the left and right flank of same 6.5 week-old male NMRI nude mice. In another model, 1,000,000 SQD9 cells in a HBSS:Matrigel 1:1 solution were injected on the back of same 6.5 week-old male NMRI nude mice. Experiments were performed on tumors of ˜10 mm in diameter, i.e., about 3 weeks tumor cell inoculation. For intravenous injection, MCT1 inhibitor AR-C155858 (Tocris) was dissolved in 0.9% NaCl with 10% (2-hydroxypropyl)-β-cyclodextrin at a concentration of 2.5 mg/ml (Vijay et al., Pharm Res, 2015, 32, 1894-1906). For intravenous injection, MCT1 inhibitor AZD3965 (Selleckchem) was first dissolved in pure ethanol at a concentration of 100 mg/ml, then diluted in 0.9% NaCl with 10% (2-hydroxypropyl)-β-cyclodextrin at a final concentration of 2.5 mg/ml. […] Tumor localization was determined on PET/CT fused images. […] Tracer uptake is expressed as standard uptake value (SUV) calculated on the mean value of voxels within the manually defined 3D volume of interest (VOI).

[7] = target: T2, MCT1 (Homo sapiens, UniProt P53985); assay: In vivo inhibition of tracer uptake by MCT1 inhibitors, SQD9 tumor-bearing mice (PET/CT); settings: 5 mg/Kg IV 10 min before tracer, images 30 min after tracer; SQD9 tumors, liver
T2 construct: the experiment was repeated using SQD9 human laryngeal squamous cell carcinoma cells in mice; endogenous in cells; host or cells: SQD9 xenograft tumours in NMRI nude mice
T2 sequence (P53985 1-500): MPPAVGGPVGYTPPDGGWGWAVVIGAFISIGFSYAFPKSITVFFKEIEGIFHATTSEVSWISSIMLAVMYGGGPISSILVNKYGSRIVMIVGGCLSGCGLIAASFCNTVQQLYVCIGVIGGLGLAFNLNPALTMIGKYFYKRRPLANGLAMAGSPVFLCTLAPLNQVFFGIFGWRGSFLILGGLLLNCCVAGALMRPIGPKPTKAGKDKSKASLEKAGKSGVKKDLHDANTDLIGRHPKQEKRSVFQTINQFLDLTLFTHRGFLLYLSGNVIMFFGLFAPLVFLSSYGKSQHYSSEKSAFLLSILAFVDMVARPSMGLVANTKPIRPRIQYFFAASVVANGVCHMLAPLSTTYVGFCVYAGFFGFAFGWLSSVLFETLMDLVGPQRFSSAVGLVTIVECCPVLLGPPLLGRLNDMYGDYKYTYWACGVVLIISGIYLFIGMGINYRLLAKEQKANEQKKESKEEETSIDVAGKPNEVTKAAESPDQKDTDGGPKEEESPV
T2 sequence (P35613 140-385 partner limits assumed): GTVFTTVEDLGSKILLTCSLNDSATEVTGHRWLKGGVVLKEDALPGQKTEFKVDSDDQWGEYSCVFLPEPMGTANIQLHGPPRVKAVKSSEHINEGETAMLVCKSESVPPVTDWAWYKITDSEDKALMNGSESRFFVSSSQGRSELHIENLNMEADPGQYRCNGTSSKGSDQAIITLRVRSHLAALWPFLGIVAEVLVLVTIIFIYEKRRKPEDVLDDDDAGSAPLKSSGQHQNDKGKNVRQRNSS
Experimental: In vivo tracer uptake assay. […] In another model, 1,000,000 SQD9 cells in a HBSS:Matrigel 1:1 solution were injected on the back of same 6.5 week-old male NMRI nude mice. Experiments were performed on tumors of ˜10 mm in diameter, i.e., about 3 weeks tumor cell inoculation. […] 2D Regions of interest (ROIs) were manually delineated on PET images using the PMOD software version 3.5 (PMOD technologies Ltd). Tumor localization was determined on PET/CT fused images. Ribcage and skin were used as internal and external limits, respectively. Tracer uptake is expressed as standard uptake value (SUV) calculated on the mean value of voxels within the manually defined 3D volume of interest (VOI).

Question: 3-fluoropyruvate was tested. Which “reduction of 3-fluoropyruvate to 3-fluoro-2-hydroxypropionate by LDH” value [1] did it give?
Answer: The value was “can be reduced to 3-fluoralacate by lactate dehydrogenase (LDH)”.

Question: For `O=C(O)C(O)C[18F]` (racemic) [(±)-[^18F]-3-fluoro-2-hydroxypropionate, [^18F]-3-fluoro-2-hydroxypropionic acid], which “intracellular 18F dose” value [2] is on record?
Answer: Its value is ~0.3 % of the initial dose.

Question: And the “intracellular 18F dose” value [3]?
Answer: Its value is ~0.1 % of the initial dose.

Question: And the “bone labeling indicating defluorination” value ([4]; 30 min after tracer injection)?
Answer: The value was “no detectable bone labeling”.

Question: What about the “discrimination of SiHa-shCTR and SiHa-shMCT1 tumors by the tracer” value ([4]; 30 min after tracer injection) of the same compound?
Answer: The value was “no apparent discrimination of SiHa-shCTR and SiHa-shMCT1”.

Question: And the “bone labeling indicating defluorination” value ([4]; 60 min after tracer injection)?
Answer: Its value is “spinal and joint labeling was detected, indicating that some defluorination had occurred”.

Question: And the “time of best tumor contrast after tracer injection” value ([4]; IV 150-250 μCi, PET/CT)?
Answer: Its value is 30 min.

Question: What about the “labeling of other organs (tracer distribution)” value ([4]; IV 150-250 μCi, PET/CT, 30 min after tracer injection) of the same compound?
Answer: The value was “the gut and the liver, were also labeled”.

Question: And the “route of tracer clearance” value ([4]; bladder labeling before and after systemic MCT1 inhibition)?
Answer: The value was “urine is the preferred route”.

Question: And the “intracellular 18F dose” value [5]?
Answer: The value was ~0.1 % of the initial dose.

Question: And the “tracer uptake by SQD9 tumors” value [6]?
Answer: The value was “the tumors captured and accumulated the tracer”.

Question: `Cc1[nH]nc(C(F)(F)F)c1Cc1sc2c(c1C(=O)N1C[C@](C)(O)CO1)c(=O)n(C)c(=O)n2C(C)C` [AZD3965] was tested. Which “change in tracer uptake (SUV) after MCT1 inhibitor” value [7] did it give?
Answer: The value was “highly significant decrease in tracer uptake in the tumors and liver”.
